# Measurements: patent US12544375B2, “Small molecule therapeutic for parkinson's disease paired with a biomarker of therapeutic activity” (The Board of Trustees of the Leland Stanford Junior …, priority 2019, dated 2026)
# Test system: PD fibroblasts
# Assay: Mitophagy at 14 hrs after CCCP in PD fibroblasts (Western blotting and immunocytochemistry)
# Format: cell-based, human
# Conditions: 14 hrs after CCCP treatment
# Method: FIG. 8. Related to FIG. 2-4. Miro1 Reducer in Human Cell and Fly Models. (A) Fibroblasts from Healthy-1 and PD-2 were treated, lysed, and blotted as indicated. Band intensities are normalized to those of GAPDH from the same blots and compared to “Healthy-1, no treatment”. n=4 independent experiments. (B) Fibroblasts from PD-2 were treated and immunostained as indicated. The intensity was quantified for each cell across 264-320 cells from 3 independent experiments, compared to “no treatment”. (C) Fibroblasts were treated, immunoprecipitated (IPed) with anti-Miro1, and blotted as indicated. Similar results were observed twice. (D) Similar as in (C), fibroblasts were treated as indicated, and IPed with anti-Miro1. The GTPase activity of the IPed Miro1 protein was measured as described in Method. […] The MitoSox intensity was quantified for each cell across 106-161 cells from 3 coverslips. […] The TMRM intensity was measured for each cell across 48-60 cells from 3 independent experiments, and expressed as a fraction of the mean of “Healthy-1, no treatment”. […] The movement (the intensity of non-yellow) was quantified for each cell as described in (Tsai et al., 2014) across 22-31 cells from 3 transfections. […] (1) Left: The percentage of TH-positive iPSC-derived neurons out of total cells (Dapi-positive) is calculated after immunocytochemistry under 20× as described in FIG. 3. […]
structure (smiles),measurement,value
O=C(Nc1ccc(Nc2cc(-n3ccnc3)ncn2)cc1)Nc1cccc(F)c1 [Miro1 Reducer],delayed mitophagy phenotype,rescued the delayed mitophagy phenotype
